Patent US20230312700A1, “TREATMENT OF A DISEASE OF THE GASTROINTESTINAL TRACT WITH A TNF INHIBITOR” (Progenity, Inc., priority 2018, published 2023)

Test: Example 10: tacrolimus tissue, plasma, rectal and GI content pharmacokinetics, oral vs intra-cecal ingestible device
Design: species or system Yorkshire-Cross farm swine
Settings: female, Yorkshire-Cross, swine, in vivo, 0.09 mg/kg
Procedure: The primary objective of this study was to compare the tissue, plasma, rectal sample, and GI content pharmacokinetics of tacrolimus through oral versus intra-cecal ingestible device delivery in normal Yorkshire-Cross farm swine.
No further randomization procedure was employed.
Animals in Group 1 received an ingestible device containing 0.8 mL of vehicle solution (80% alcohol, 20% HCO-60). Animals in Group 2 received orally […] liquid formulation of tacrolimus at 4 mg/0.8 mL per animal (Prograf: 5 mg/mL). Animals in Group 3 received intra-cecally an ingestible device containing tacrolimus at 1 mg in 0.8 mL per ingestible device. […]
Approximately 200-400 mg of rectal content were collected, if available, with a fecal swab (Copan Diagnostics Nylon Flocked Dry Swabs, 502CS01). The fecal swab was pre-weighed and weighed after collection in the collection tube (Sterile Tube and Cap No Media, PFPM913S), and the sample weight was recorded. […]
For tissue necropsy, small intestine fluid and cecal fluid were collected separately from all the animals into two separate square plastic bottles, and stored at −20° C. The length and diameter of the cecum and the colon was measured from one animal in each group and recorded for reference. […] All samples were weighed, and the tissue sample weights were recorded. […]

With `C=CC[C@@H]1/C=C(\C)C[C@H](C)C[C@H](OC)[C@H]2O[C@@](O)(C(=O)C(=O)N3CCCC[C@H]3C(=O)O[C@H](/C(C)=C/[C@@H]3CC[C@@H](O)[C@H](OC)C3)[C@H](C)[C@@H](O)CC1=O)[C@H](C)C[C@@H]2OC` [tacrolimus] the concentration at 12 h was 4.38 ± 0.516 ng/mL.
